Reference: PMC7939570, “Discovery of potent histone deacetylase inhibitors with modified phenanthridine caps” (Journal of Enzyme Inhibition and Medicinal Chemistry, 2021)

Legend:
[1] = tested on: xenograft nude mice model; design: method as in PMID 31058081; settings: in vivo; cited from earlier work
[2] = tested on: Hela nucleus extract containing a mixture of HDAC isoforms; experiment: HDAC enzyme inhibitory assay with Hela nucleus extract; type: biochemical; settings: 1 µM, mean of three experiments
Protocol: The HDAC enzyme inhibitory activities of synthesised compounds were investigated by utilising Hela nucleus extract containing a mixture of HDAC isoforms. Percentage inhibitory rate was used to determine the activity of tested compounds (Tables 1 and 2). The Fa series compounds were firstly synthesised for the activity screening. […] To investigate whether aromatic linker could improve the inhibitory activities, structural modifications were performed on current molecules.

U266 cells = experiment: MTT antiproliferative assay, U266 cells; settings: Homo sapiens, U-266, 48 h, read-out: U266 antiproliferative IC50
HEPG2 cells = experiment: MTT antiproliferative assay, HEPG2 cells; settings: Homo sapiens, HepG2, 48 h, read-out: HEPG2 antiproliferative IC50
MCF-7 cells [3] = experiment: MTT antiproliferative assay, MCF-7 cells; settings: Homo sapiens, MCF7, 48 h, read-out: MCF-7 antiproliferative IC50
U937 cells = experiment: MTT antiproliferative assay, U937 cells; settings: Homo sapiens; for IC50: U-937, 48 h, read-out: U937 antiproliferative IC50; for inhibition at 1 µM: U-937, read-out: U937 percentage inhibitory rate, 1 µM, U937 cells, MTT, mean of three experiments
K562 cells = experiment: MTT antiproliferative assay, K562 cells; settings: Homo sapiens, K562, 48 h, read-out: K562 antiproliferative IC50
MCF-7 cells [4] = experiment: Cell cycle assay (PI, flow cytometry); settings: 24 h
Protocol: After staining, the cell cycle distribution was determined by flow cytometry within 24 h.

HDAC2 = HDAC2 (Homo sapiens, UniProt Q92769); experiment: HDAC isoform inhibitory assay, HDAC2
Protocol: (§1) All HDAC enzymes were purchased from BPS Bioscience. In short, 60 μL of recombinant HDAC enzyme solution was mixed with various concentrations of test compound (40 μL), and then incubated at 37 °C for 30 min. The reaction was terminated by adding 100 μL of imaging agent containing trypsin and trichostatin A (TSA). After standing for 20 min, the fluorescence intensity was measured at the excitation and emission wavelengths of 360 and 460 nm with a microplate reader. The inhibition rate was calculated from the fluorescence intensity readings of the test wells relative to the control wells, and the IC50 curve and value were determined by GraphPad Prism 6.0 software.

HDAC3 = HDAC3 (Homo sapiens, UniProt O15379); experiment: HDAC isoform inhibitory assay, HDAC3
Protocol: as §1

HDAC8 = target: T1, HDAC8 (Homo sapiens, UniProt Q9BY41); experiment: HDAC isoform inhibitory assay, HDAC8
T1 sequence (Q9BY41 1-377): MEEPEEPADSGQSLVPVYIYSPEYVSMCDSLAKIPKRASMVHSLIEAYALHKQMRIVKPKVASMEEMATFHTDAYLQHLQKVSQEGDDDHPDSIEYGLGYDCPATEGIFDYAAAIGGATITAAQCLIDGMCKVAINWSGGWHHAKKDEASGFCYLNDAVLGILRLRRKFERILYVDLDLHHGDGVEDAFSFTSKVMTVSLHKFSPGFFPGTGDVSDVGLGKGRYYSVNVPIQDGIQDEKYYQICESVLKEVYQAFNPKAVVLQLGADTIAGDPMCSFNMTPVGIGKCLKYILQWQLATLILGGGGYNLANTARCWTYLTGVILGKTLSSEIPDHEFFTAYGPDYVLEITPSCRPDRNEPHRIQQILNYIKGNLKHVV
Protocol: as §1

HDAC6 = target: T2, HDAC6 (Homo sapiens, UniProt Q9UBN7); experiment: HDAC isoform inhibitory assay, HDAC6
T2 sequence (Q9UBN7 1-1215): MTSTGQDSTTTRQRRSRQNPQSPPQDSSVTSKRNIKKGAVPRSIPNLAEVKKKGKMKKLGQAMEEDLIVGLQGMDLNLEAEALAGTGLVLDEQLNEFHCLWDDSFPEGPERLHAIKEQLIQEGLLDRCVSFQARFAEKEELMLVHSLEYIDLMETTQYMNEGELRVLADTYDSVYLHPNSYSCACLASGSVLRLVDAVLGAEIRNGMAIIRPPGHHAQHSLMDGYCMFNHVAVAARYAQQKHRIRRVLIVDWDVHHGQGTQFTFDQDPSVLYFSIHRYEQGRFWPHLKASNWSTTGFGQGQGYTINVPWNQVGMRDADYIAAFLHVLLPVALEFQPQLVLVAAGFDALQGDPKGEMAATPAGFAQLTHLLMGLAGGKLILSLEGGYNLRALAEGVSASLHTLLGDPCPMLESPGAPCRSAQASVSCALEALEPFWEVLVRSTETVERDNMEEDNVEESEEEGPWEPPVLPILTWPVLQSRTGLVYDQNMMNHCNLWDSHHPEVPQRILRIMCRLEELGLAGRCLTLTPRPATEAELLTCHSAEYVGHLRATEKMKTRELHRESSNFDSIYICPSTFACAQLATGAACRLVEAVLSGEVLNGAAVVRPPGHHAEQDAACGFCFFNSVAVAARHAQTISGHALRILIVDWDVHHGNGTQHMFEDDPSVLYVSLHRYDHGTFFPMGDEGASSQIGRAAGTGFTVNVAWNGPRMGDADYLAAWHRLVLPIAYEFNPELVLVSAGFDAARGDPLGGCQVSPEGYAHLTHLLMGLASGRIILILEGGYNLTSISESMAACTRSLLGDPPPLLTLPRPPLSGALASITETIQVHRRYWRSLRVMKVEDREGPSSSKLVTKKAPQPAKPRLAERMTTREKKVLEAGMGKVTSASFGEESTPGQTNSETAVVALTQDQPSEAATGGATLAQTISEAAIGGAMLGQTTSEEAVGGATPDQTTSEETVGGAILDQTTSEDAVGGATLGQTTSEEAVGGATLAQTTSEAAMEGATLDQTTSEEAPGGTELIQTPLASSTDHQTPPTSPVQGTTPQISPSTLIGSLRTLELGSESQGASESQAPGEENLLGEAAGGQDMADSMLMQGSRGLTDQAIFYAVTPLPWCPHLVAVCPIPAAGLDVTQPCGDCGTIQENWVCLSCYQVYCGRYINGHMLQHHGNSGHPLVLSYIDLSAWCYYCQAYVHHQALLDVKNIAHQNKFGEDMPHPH
Protocol: as §1

HDAC1 = HDAC1 (Homo sapiens, UniProt Q13547); experiment: HDAC isoform inhibitory assay, HDAC1
Protocol: as §1

MCF-7 cells [5] = experiment: Cell apoptosis assay (Annexin V-FITC/PI, flow cytometry); settings: 24 h, control 9.16%
Protocol: After incubating for 15 min, add 10 µL of PI to each sample and mix gently, and incubate for 5 min at 2–8 °C under dark conditions, and detect with a flow cytometer.

Sequence of HDAC2 (Q92769 whole entry, canonical isoform): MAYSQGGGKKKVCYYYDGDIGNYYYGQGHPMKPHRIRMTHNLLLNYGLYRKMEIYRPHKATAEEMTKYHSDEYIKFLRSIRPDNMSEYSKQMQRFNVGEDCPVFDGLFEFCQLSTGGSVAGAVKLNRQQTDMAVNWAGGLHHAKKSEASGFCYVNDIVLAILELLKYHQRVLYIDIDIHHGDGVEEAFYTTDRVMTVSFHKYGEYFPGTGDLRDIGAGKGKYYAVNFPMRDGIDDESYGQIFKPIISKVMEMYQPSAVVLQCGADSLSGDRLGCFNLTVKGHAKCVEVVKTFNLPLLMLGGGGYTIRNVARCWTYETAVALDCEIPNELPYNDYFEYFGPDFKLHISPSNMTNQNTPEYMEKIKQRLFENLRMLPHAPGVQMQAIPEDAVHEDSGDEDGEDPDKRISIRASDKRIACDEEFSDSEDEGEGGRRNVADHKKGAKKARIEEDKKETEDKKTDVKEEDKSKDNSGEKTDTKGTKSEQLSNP
Sequence of HDAC1 (Q13547 whole entry, canonical isoform): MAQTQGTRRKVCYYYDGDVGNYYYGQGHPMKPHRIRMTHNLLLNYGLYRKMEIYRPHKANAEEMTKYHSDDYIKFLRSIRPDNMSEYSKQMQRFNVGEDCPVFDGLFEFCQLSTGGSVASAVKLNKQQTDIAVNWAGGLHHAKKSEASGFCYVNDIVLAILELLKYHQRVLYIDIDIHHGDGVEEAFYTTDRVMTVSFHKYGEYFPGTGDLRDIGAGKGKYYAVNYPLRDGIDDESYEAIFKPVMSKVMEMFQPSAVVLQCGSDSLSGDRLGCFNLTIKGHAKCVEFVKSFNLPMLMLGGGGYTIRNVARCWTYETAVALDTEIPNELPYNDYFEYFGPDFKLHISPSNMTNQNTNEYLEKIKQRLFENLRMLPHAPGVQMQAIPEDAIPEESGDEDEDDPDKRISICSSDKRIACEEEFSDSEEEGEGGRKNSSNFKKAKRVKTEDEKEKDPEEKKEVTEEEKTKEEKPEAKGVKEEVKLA
Sequence of HDAC3 (O15379 whole entry, canonical isoform): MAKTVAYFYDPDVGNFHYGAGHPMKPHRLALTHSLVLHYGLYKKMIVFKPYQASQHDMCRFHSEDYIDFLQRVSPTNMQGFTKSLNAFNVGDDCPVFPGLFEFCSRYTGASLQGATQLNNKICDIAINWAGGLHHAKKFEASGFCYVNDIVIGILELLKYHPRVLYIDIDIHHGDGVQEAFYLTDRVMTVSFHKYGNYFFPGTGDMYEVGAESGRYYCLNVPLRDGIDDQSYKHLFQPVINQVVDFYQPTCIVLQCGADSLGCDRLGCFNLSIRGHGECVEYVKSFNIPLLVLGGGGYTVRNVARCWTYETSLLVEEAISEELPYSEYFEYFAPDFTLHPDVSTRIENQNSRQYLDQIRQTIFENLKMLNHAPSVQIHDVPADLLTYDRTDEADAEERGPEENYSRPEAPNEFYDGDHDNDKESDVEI
Sequence of HDAC3 (Q9Y618 395-489 partner limits assumed): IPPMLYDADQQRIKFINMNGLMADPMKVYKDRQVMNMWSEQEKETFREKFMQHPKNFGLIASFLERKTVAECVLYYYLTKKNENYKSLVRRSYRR

| SMILES | hepatotoxicity [1] | HDACs percentage inhibitory rate [2] [%] | IC50 (U266 cells) [nM] | IC50 (HEPG2 cells) [nM] | IC50 (MCF-7 cells [3]) [nM] | IC50 (U937 cells) [nM] | inhibition at 1 µM (U937 cells) [%] | IC50 (K562 cells) [nM] | cell percentage at G2/M phase (MCF-7 cells [4]; 1 µM) [%] | cell percentage at G2/M phase (MCF-7 cells [4]; 3 µM) [%] | cell percentage at G2/M phase (MCF-7 cells [4]; 9 µM) [%] | IC50 (HDAC2) [nM] | IC50 (HDAC3) [nM] | IC50 (HDAC8) [nM] | IC50 (HDAC6) [nM] | IC50 (HDAC1) [nM] | percentage of apoptotic cells (MCF-7 cells [5]; 1 µM) [%] | percentage of apoptotic cells (MCF-7 cells [5]; 3 µM) [%] | percentage of apoptotic cells (MCF-7 cells [5]; 9 µM) [%] |
| --- | --- | --- | --- | --- | --- | --- | --- | --- | --- | --- | --- | --- | --- | --- | --- | --- | --- | --- | --- |
| ClC(Cl)(Cl)c1nc2cc3c(cc2c2cc4c(cc12)OCO4)OCO3 [Compound 8a] | obvious hepatotoxicity | – | – | – | – | – | – | – | – | – | – | – | – | – | – | – | – | – | – |
| COc1ccc(C(=O)Nc2cc3c(cc2-c2ccc(C(=O)NCc4ccc(C(=O)NO)cc4)cc2)OCO3)cc1 [Fb-2, 4-({4-[6–(4-Methoxy-benzoylamino)-benzo[1,3]dioxol-5-yl]-benzoylamino}-methyl)-N-Hydroxy-benzamide] | – | 52.30 ± 2.26 | 90 ± 10 | 17900 ± 1040 | 940 ± 20 | 920 ± 90 | 94.46 ± 0.41 | 1190 ± 60 | – | – | – | – | – | – | – | – | – | – | – |
| CCc1ccc(C(=O)Nc2cc3c(cc2-c2ccc(C(=O)NCc4ccc(C(=O)NO)cc4)cc2)OCO3)cc1 [Fb-3, 4-({4-[6–(4-Ethyl-benzoylamino)-benzo[1,3]dioxol-5-yl]-benzoylamino}-methyl)-N-Hydroxy-benzamide] | – | 53.90 ± 1.82 | 100 ± 20 | 14900 ± 780 | 530 ± 90 | 630 ± 20 | 96.05 ± 0.01 | 470 ± 30 | – | – | – | – | – | – | – | – | – | – | – |
| O=C(NO)c1ccc(CNC(=O)c2ccc(-c3cc4c(cc3NC(=O)c3ccccc3F)OCO4)cc2)cc1 [Fb-4, 4-({4-[6–(2-Fluoro-benzoylamino)-benzo[1,3]dioxol-5-yl]-benzoylamino}-methyl)-N-Hydroxy-benzamide] | – | 66.54 ± 1.47 | 90 ± 10 | 17400 ± 630 | 320 ± 40 | 340 ± 60 | 95.9 ± 1.09 | 870 ± 10 | 17.46 | 24.81 | 41.71 | 21.5 ± 4.5 | 11 ± 2.8 | 304 ± 32.6 | 8.6 ± 1.3 | 12.1 ± 2.5 | 16.99 | 20.07 | 21.19 |
| O=C(CCCCCCC(=O)Nc1ccccc1)NO [SAHA, Vorinostat, reference compound] | – | – | 140 ± 60 | – | – | – | – | – | 15.39 | 20.75 | 38.48 | – | – | – | – | – | 11.38 | 12.30 | 19.51 |
